Source: patent US20230053540A1, “TREATMENT OF LIVER INJURY” (Massachusetts Institute of Technology, priority 2019, published 2023)

Tested on: hepatocytes
Assay: Seq-Well scRNA-Seq of hepatocytes after APAP overdose (signature scores, DEG vs untreated)
Format: in vivo, mouse
Conditions: A6 vs UT

CC(=O)Nc1ccc(O)cc1 [APAP, acetaminophen]
Plbd2 pct.1: 0.344
Plcxd2 A6logFC: −0.2752
Plcxd2 avg_logFC: −0.2752
Plcxd2 pct.1: 0.162
Plec avg_logFC: 0.4675
Plec pct.1: 0.422
Plek avg_logFC: 0.3089
Plek pct.1: 0.11
Plin2 avg_logFC: 1.461
Plin5 avg_logFC: 0.2963
Plin5 pct.1: 0.456
Plscr1 avg_logFC: 0.4445
Pmpcb avg_logFC: −0.2636
Pmpcb pct.1: 0.356
Pnkd A6logFC: −0.2928
Pon1 avg_logFC: −0.6858
Ppan avg_logFC: 0.2724
Ppan pct.1: 0.255
Ppara avg_logFC: −0.2871
Ppara pct.1: 0.234
Ppib avg_logFC: −0.5897
Ppip5k2 A6logFC: 0.3209
Ppip5k2 avg_logFC: 0.3209
Ppip5k2 pct.1: 0.344
Ppl avg_logFC: 0.8798
Ppm1g A6logFC: 0.2522
Ppm1g avg_logFC: 0.2522
Ppm1g pct.1: 0.358
Ppm1k avg_logFC: −0.5584
Ppp1r3b avg_logFC: −0.4027
Ppp1r3b pct.1: 0.098
Ppp2r5a avg_logFC: −0.2605
Ppp2r5a pct.1: 0.43
Prdx1 avg_logFC: −0.5292
Prdx4 avg_logFC: −0.4176
Prdx4 pct.1: 0.372
Proc A6logFC: −0.2707
Prpf19 A6logFC: 0.2588
Prpf19 avg_logFC: 0.2588
Prpf19 pct.1: 0.432
Prrc2c avg_logFC: 0.4393
Prrc2c pct.1: 0.415
Psap A6logFC: 0.2578
Psap avg_logFC: 0.2578
Psap pct.1: 0.556
Psat1 avg_logFC: 0.3012
Psen2 avg_logFC: −0.9474
Psma1 A6logFC: −0.2567
Psma1 avg_logFC: −0.2567
Psma1 pct.1: 0.353
Psma6 A6logFC: −0.3035
Psma6 avg_logFC: −0.3035
Psma6 pct.1: 0.501
Psme1 avg_logFC: −0.394
Psme1 pct.1: 0.26
Ptpmt1 A6logFC: −0.256
Ptpmt1 avg_logFC: −0.256
Ptpmt1 pct.1: 0.372
Ptpn1 avg_logFC: 0.4163
Ptpn1 pct.1: 0.353
Ptpn11 A6logFC: 0.2778
Ptpn11 avg_logFC: 0.2778
Ptpn11 pct.1: 0.37
Ptprc avg_logFC: 0.4165
Pvrl2 A6logFC: −0.2613
Qdpr avg_logFC: −0.5236
Qdpr pct.1: 0.606
Rab6a A6logFC: 0.3234
Rabac1 A6logFC: −0.266
Rabac1 avg_logFC: −0.266
Rabac1 pct.1: 0.346
Rad54l2 avg_logFC: 0.3887
Rad54l2 pct.1: 0.325
Ranbp2 avg_logFC: 0.5985
Rangap1 A6logFC: 0.2962
Rangap1 avg_logFC: 0.2962
Rangap1 pct.1: 0.387
Rap1b A6logFC: 0.3408
Rap1b avg_logFC: 0.3408
Rap1b pct.1: 0.406
Rarres2 avg_logFC: −0.5522
Rassf3 A6logFC: 0.2912
Rassf3 avg_logFC: 0.2912
Rassf3 pct.1: 0.422
Rbm25 A6logFC: 0.4215
Rbm39 A6logFC: 0.2657
Rbm39 avg_logFC: 0.2657
Rbm39 pct.1: 0.506
Rcan1 avg_logFC: 0.7073
Rdh7 avg_logFC: −0.4186
Reep3 A6logFC: 0.409
Reep3 avg_logFC: 0.409
Reep3 pct.1: 0.535
Rell1 avg_logFC: 0.5912
Retnlg avg_logFC: 0.3751
Retsat avg_logFC: 0.4911
Rgs2 avg_logFC: 0.3957
Rgs2 pct.1: 0.138
Riok3 A6logFC: 0.2916
Riok3 avg_logFC: 0.2916
Riok3 pct.1: 0.43
Rmnd5a A6logFC: 0.3189
Rmnd5a avg_logFC: 0.3189
Rmnd5a pct.1: 0.47
Rnase4 avg_logFC: −1.049
Rnaseh2c A6logFC: −0.3257
Rnd3 avg_logFC: 0.3655
Rnd3 pct.1: 0.284
Rnf144a avg_logFC: 0.313
Rnf144a pct.1: 0.177
Rnf169 A6logFC: 0.334
Rnf169 avg_logFC: 0.334
Rnf169 pct.1: 0.315
Rock1 A6logFC: 0.2608
Rock1 avg_logFC: 0.2608
Rock1 pct.1: 0.413
Rock2 avg_logFC: 0.5941
Romo1 A6logFC: −0.3359
Rora avg_logFC: 0.6444
Rpl13a avg_logFC: −0.3815
Rpl13a pct.1: 0.704
Rpl13 avg_logFC: −0.2988
Rpl13 pct.1: 0.294
Rpl14 A6logFC: −0.2776
Rpl14 avg_logFC: −0.2776
Rpl14 pct.1: 0.372
Rpl34 A6logFC: −0.2976
Rpl36al avg_logFC: −0.4755
Rpl36al pct.1: 0.284
Rplp1 avg_logFC: −0.5047
Rplp1 pct.1: 0.449
Rps15 avg_logFC: −0.4552
Rps15 pct.1: 0.301
Rps18 avg_logFC: −0.4885
Rps18 pct.1: 0.337
Rps24 A6logFC: −0.2625
Rps24 avg_logFC: −0.2625
Rps24 pct.1: 0.453
Rps27l avg_logFC: −0.8659
Rraga A6logFC: 0.2626
Rraga avg_logFC: 0.2626
Rraga pct.1: 0.337
Rsl1d1 A6logFC: 0.3461
S100a8 avg_logFC: 1.128
S100a9 avg_logFC: 1.343
Saa4 avg_logFC: −0.571
Sat1 avg_logFC: 0.6887
Sc5d avg_logFC: −0.5009
Sc5d pct.1: 0.58
Scaf11 A6logFC: 0.3598
Sco2 avg_logFC: −0.2605
Sco2 pct.1: 0.353
Scp2 avg_logFC: −0.5191
Sdad1 avg_logFC: 0.3124
Sdad1 pct.1: 0.289
Sdc3 pct.1: 0.103
Sdc4 avg_logFC: 0.6196
Sdr9c7 A6logFC: −0.26
Sec61b A6logFC: −0.2903
Sec1412 avg_logFC: −0.7897
Selenbp1 avg_logFC: −0.4937
Selenbp1 pct.1: 0.401
Selenbp2 avg_logFC: −1.009
Selo A6logFC: −0.2574
Selo avg_logFC: −0.2574
Selo pct.1: 0.217
Sema4g A6logFC: −0.2505
Sema4g avg_logFC: −0.2505
Sema4g pct.1: 0.27
Serbp1 A6logFC: 0.3227
Serbp1 avg_logFC: 0.3227
Serbp1 pct.1: 0.659
Serpina1a avg_logFC: −0.3785
Serpina1e avg_logFC: −0.2684
Serpina1e pct.1: 0.99
Serpina3m avg_logFC: 0.9674
Serpina3n avg_logFC: 0.8483
Serpina12 avg_logFC: −0.4534
Serpina12 pct.1: 0.232
Serpina1d avg_logFC: −0.289
Serpina1d pct.1: 0.926
Sf3b1 A6logFC: 0.2888
Sf3b1 avg_logFC: 0.2888
Sf3b1 pct.1: 0.508
Sgk1 A6logFC: 0.2843
Shmt1 avg_logFC: −0.3932
Shmt1 pct.1: 0.339
Sigmar1 A6logFC: −0.3055
Slc4a4 avg_logFC: 0.4203
Slc4a4 pct.1: 0.513
Slc10a2 avg_logFC: 0.299
Slc10a2 pct.1: 0.255
Slc16a2 A6logFC: −0.252
Slc16a2 avg_logFC: −0.252
Slc16a2 pct.1: 0.255
Slc16a6 avg_logFC: 0.9114
Slc16a10 A6logFC: −0.2548
Slc16a10 avg_logFC: −0.2548
Slc16a10 pct.1: 0.196
Slc20a1 avg_logFC: 0.3572
Slc20a1 pct.1: 0.284
Slc22a1 avg_logFC: −0.7979
